PubChem BioAssay (NCI)
Where “and” joins values, the source holds several entries; their conditions need not be identical. Equal entries are not always repeated.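 Cultured in 96-well plates, cells were exposed to test compound for 48 hours across five concentrations. Abbreviation: GI50, concentration required for 50% inhibition of growth. TGI marks complete inhibition of growth.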

Columns and labels:
Test in all cases: DTP human tumour cell line panel, 48 h
UACC-62 melanoma = tested on: UACC-62 melanoma
T-47D breast = tested on: T-47D breast
LOX IMVI melanoma = tested on: LOX IMVI melanoma
MCF7 breast = tested on: MCF7 breast
NCI/ADR-RES ovarian = tested on: NCI/ADR-RES ovarian
EKVX NSCLC = tested on: EKVX NSCLC
UO-31 renal = tested on: UO-31 renal
ACHN renal = tested on: ACHN renal
SK-MEL-5 melanoma = tested on: SK-MEL-5 melanoma
SK-OV-3 ovarian = tested on: SK-OV-3 ovarian

SMILES	TGI (UACC-62 melanoma)	TGI (T-47D breast) [µM]	TGI (LOX IMVI melanoma)	TGI (MCF7 breast)	TGI (NCI/ADR-RES ovarian)	TGI (EKVX NSCLC) [µM]	TGI (UO-31 renal)	TGI (ACHN renal) [µM]	TGI (SK-MEL-5 melanoma) [µM]	TGI (SK-OV-3 ovarian) [µM]	GI50 (UACC-62 melanoma) [µM]	GI50 (T-47D breast) [µM]	GI50 (LOX IMVI melanoma) [µM]	GI50 (MCF7 breast) [µM]	GI50 (NCI/ADR-RES ovarian) [µM]	GI50 (EKVX NSCLC) [µM]	GI50 (UO-31 renal) [µM]	GI50 (ACHN renal) [µM]	GI50 (SK-MEL-5 melanoma) [µM]
O=C(C1OC1c1ccc(Br)cc1O)C12CC3CC(CC(C3)C1)C2 (centres undefined)	40.6 µM	> 100	28.7 µM	> 100 µM	> 100 µM	> 100	31.3 µM	> 100	56.8	–	–	–	–	–	–	–	–	–	–
CC(C)c1cc2c(cc1S(=O)(=O)O)[C@@]1(C)CCC[C@@](C)(C(=O)O)C1CC2 (some centres undefined)	> 100 µM	> 100	> 100 µM	> 100 µM	> 100 µM	> 100	> 100 µM	> 100	> 100	> 100	–	–	–	–	–	–	–	–	–
C/C(=C\CBr)CCC(Br)C(C)(C)Br (centres undefined)	> 100 µM	> 100	–	> 100 µM	> 100 µM	> 100	> 100 µM	> 100	> 100	> 100	–	–	–	–	–	–	–	–	–
Cn1c2ccc3cc2c(=S)c2cc(ccc21)OCCOCCOCCOCCOCCOCCO3	–	> 10	> 10 µM	> 10 µM	> 10 µM	> 10	> 10 µM	> 10	> 10	> 10	–	–	–	–	–	–	–	–	–
O=S(=O)(c1ccccc1)c1cccc2c1NCCC2	> 10 µM	–	> 100 µM	> 100 µM	> 100 µM	> 100	> 100 µM	> 100	52	> 10	–	–	–	–	–	–	–	–	–
COc1ccc(CN2C(=O)/C(=C\c3cc(OC)c(OC)c(OC)c3)c3ccccc32)cc1	3.51 µM	7.31	3.3 µM	15.9 µM	> 100 µM	55.1	2.91 µM	4.41	6.63	–	1.6	2.06	1.76	2.86	2.97	2.99	1.18	2.06	2.51
O=C(/C=C/c1ccc2c(c1)OCO2)c1ccc(O)cc1	33 µM	–	24.8 µM	23.1 µM	3.52 µM	30.3	26.2 µM	59.4	29.1	35.1	–	–	–	–	–	–	–	–	–
O=c1[nH]c(=S)[nH]c2c1C(c1ccc([N+](=O)[O-])cc1)c1c([nH]c(=S)[nH]c1=O)O2	> 100 µM	> 100	> 100 µM	> 100 µM	> 100 µM	> 100	> 100 µM	> 100	> 100	–	–	–	–	–	–	–	–	–	–
c1ccc2c3[nH]c(c2c1)=Nc1ccc(cc1)-c1nc2cc(ccc2o1)N=c1[nH]c(c2ccccc12)=Nc1ccc2nc(oc2c1)-c1ccc(cc1)N=3	> 100 µM	–	> 100 µM	> 100 µM	> 100 µM	> 100	> 100 µM	> 100	> 100	–	–	–	–	–	–	–	–	–	–
N[C@@H](CCC(=O)NCP(=O)(O)O)C(=O)O	> 100 µM	> 100	–	> 100 µM	> 100 µM	> 100	> 100 µM	> 100	> 100	–	–	–	–	–	–	–	–	–	–
O=C1C=C[C@@H](COC2OC(CO)C(O)C(O)C2O)O1 (some centres undefined)	12 µM and 22.6 µM	–	15.8 µM and 16.4 µM	3.81 µM and 19.6 µM	28 µM and 34.8 µM	39.1	85 µM	–	33.9	> 100	3.03	–	–	1.24	–	–	–	–	–
COc1ccc(N=NC(=Nc2ccccc2)c2ccc(N(CCC#N)CCC#N)cc2)cc1	> 100 µM	> 100	–	73 µM	> 100 µM	> 100	> 100 µM	> 100	> 100	> 100	–	–	–	–	–	–	–	–	–
CC(=O)/C=C/C1=C(C)CCCC1(C)CC(C)C (centres undefined)	87.3 µM	55.5	39.9 µM	66.9 µM	–	> 100	> 100 µM	47.9	49.1	> 100	–	–	–	–	–	–	–	–	–
CC1=Nc2ccccc2OC(C)=C1N=Nc1ccc2nc(C)[nH]c2c1	> 100 µM	> 100	> 100 µM	> 100 µM	> 100 µM	> 100	–	> 100	–	> 100	–	–	–	–	–	–	–	–	–
Nc1ncnc2c1[nH]c(=O)n2-c1ccccc1	> 100 µM	–	> 100 µM	> 100 µM	> 100 µM	> 100	> 100 µM	> 100	> 100	> 100	–	–	–	–	–	–	–	–	–
COc1cccc(Nc2nc(-c3cccs3)nc3cc(OC)c(OC)cc23)c1	39.8 µM	> 100	–	49.2 µM	63.8 µM	> 100	> 100 µM	50.3	44.5	> 100	–	–	–	–	–	–	–	–	–
N#CC(Cc1ccccc1)N(CCC1=CCCCC1)C(c1ccccc1)c1ccccc1 (centres undefined)	> 100 µM	> 100	–	> 100 µM	> 100 µM	> 100	> 100 µM	> 100	> 100	> 100	–	–	–	–	–	–	–	–	–
COc1ccc2[nH]cc(/C=C(/C)c3ccncc3)c2c1	29.8 µM and 52.9 µM	–	28.8 µM and 18.9 µM	> 100 µM	–	> 100	28.4 µM and 96.4 µM	–	9.24	35.6	–	–	–	0.996	2.11	–	3.85	–	–
O=C(Cc1ccc(O)c(O)c1)NCc1c[nH]c2ccccc12	–	> 100	–	> 100 µM	> 100 µM	> 100	> 100 µM	–	> 100	> 100	–	–	–	–	–	–	–	–	–
N#C/C(=C1/Sc2c(nc[nH]c2=O)N1c1ccccc1)c1nc2ccccc2[nH]1	> 100 µM	–	–	–	–	> 100	> 100 µM	> 100	> 100	> 100	–	–	–	–	–	–	–	–	–
O=C(NCc1ccccc1)c1n[nH][nH]c1=O	> 100 µM	> 100	–	> 100 µM	> 100 µM	> 100	> 100 µM	> 100	> 100	> 100	–	–	–	–	–	–	–	–	–
COc1cc(S(=O)(=O)Nc2nc(-c3ccc(N4C(=O)C(CC(=O)O)SC4c4cccs4)cc3)cs2)ccc1Cl (centres undefined)	48.9 µM	91.9	39.3 µM	65.8 µM	76.6 µM	–	45.2 µM	> 100	> 100	> 100	–	–	–	–	–	–	–	–	–
CC1CN(C)c2ccccc2N=C1NN (centres undefined)	> 100 µM	–	–	–	> 100 µM	> 100	> 100 µM	> 100	> 100	> 100	–	–	–	–	–	–	–	–	–
